Source: PMC8306578, “[^68Ga]Ga-DFO-c(RGDyK): Synthesis and Evaluation of Its Potential for Tumor Imaging in Mice” (International Journal of Molecular Sciences, 2021)
Read-outs that look alike come from different tables or passages of the source.

What was measured:
U-87 MG cells = assay: Cell uptake assay in U-87 MG cells; type: cell-based, human; settings: 7 nM tracer, 500-fold excess (3.5 µM) inhibitor, 30-90 min, 37 °C
Protocol: (§1) Human glioblastoma multiforme U-87 MG cells (ATCC, Manassas, VA, USA) were cultured in Dulbecco’s Modified Eagle Medium (Merck, Darmstadt, Germany) supplemented with 10% fetal bovine serum, 0.1 mM non-essential amino acids, and 1.0 mM sodium pyruvate at 37 °C in a 5% carbon dioxide humidified incubator. Human melanoma cell lines M21 (fluorescence-activated cell sorting selected clone, which stably express αvβ3 integrin; αvβ3 integrin-positive) and M21-L (αvβ3 integrin-negative) originated from prof. Cheresh, Departments of Immunology and Vascular Biology, The Scripps Research Institute, La Jolla, CA, USA and were a kind gift of prof. Decristoforo, Department of Nuclear Medicine, Medical University Innsbruck, Austria. Both M21 and M21-L cells were cultured in Dulbecco’s Modified Eagle Medium (Merck, Darmstadt, Germany) supplemented with 10% fetal bovine serum. All the cells were subcultured and used for experiments at a confluency of 70–90%. Cell uptake assays were performed in 24-well plates cell at cellular confluency of 70–90%. […] Afterwards, the 24-well plates were rinsed with PBS and the cells were lysed by 0.1 M NaOH and measured for radioactivity in the gamma counter. The uptake of [^68Ga]Ga-DFO-c(RGDyK) was calculated as the mean of the percentage of the applied dose ± standard deviation.

[1] = type: physicochemical; settings: pH 7.4
Protocol: Aliquots of 50 μL were added to 450 μL PBS and 500 μL octanol, and the mixture was vigorously vortexed for 20 min at 1500 rpm. The aqueous and organic solvents were separated by centrifugation (2 min at 2000× g), and 50 μL aliquots of both layers were collected and measured in a gamma counter (PerkinElmer, Waltham, MA, USA). Log p values were calculated from the obtained data in Microsoft Office Excel 2010 (Microsoft, Redmond WA, USA) (mean of n = 6).

[2] = parameters: dose or concentration left out as unconfirmed; settings: mouse, in vivo
Protocol: (§2) The animal studies were performed using female 8–10-week-old Balb/c and athymic Balb/c nude mice (Envigo, Horst, The Netherlands). The animals were acclimatized to laboratory conditions for 1 week prior to experimental use and housed in a specific-pathogen-free animal facility with free access to animal chow and water. During the experiments, general health and body weight of the animals were monitored. The number of animals was reduced as much as possible (n = 3 per group and time point) for all in vivo experiments. […]
(§3) For animal tumor models, athymic Balb/c nude mice were subcutaneously injected in the right flank with 5 × 10^6 U-87 MG cells mixed with Matrigel Matrix (Corning, NY, USA) at a 1:1 ratio or in the right and left flank with 5 × 10^6 M21 and M21-L cells. Tumor growth was continuously monitored by caliperation. […]
The animals were sacrificed by cervical dislocation at 30 and 90 min post-injection (p.i.). Organs and tissues of interest (blood, spleen, pancreas, stomach, intestines, kidneys, liver, heart, lung, muscle, bone, and tumor) were collected, weighed, and measured in the gamma counter. The results were expressed as percentage of injected dose per gram organ (% ID/g).

M21 cells = assay: Cell uptake assay in M21 (αvβ3-positive) cells; type: cell-based, human; settings: 7 nM tracer, 500-fold excess (3.5 µM) inhibitor, 60 min, 37 °C
Protocol: as §1

[3] = mouse, in vivo
Protocol: The animal studies were performed using female 8–10-week-old Balb/c and athymic Balb/c nude mice (Envigo, Horst, The Netherlands). The animals were acclimatized to laboratory conditions for 1 week prior to experimental use and housed in a specific-pathogen-free animal facility with free access to animal chow and water. During the experiments, general health and body weight of the animals were monitored. The number of animals was reduced as much as possible (n = 3 per group and time point) for all in vivo experiments. The tracer injection as well as small animal imaging was carried out under 2% isoflurane anesthesia (FORANE, Abbott Laboratories, Abbott Park, IL, USA) to minimize animal suffering and to prevent animal motion. […] The animals were sacrificed by cervical dislocation at 30 and 90 min post-injection (p.i.). Organs and tissues of interest (blood, spleen, pancreas, stomach, intestines, kidneys, liver, heart, lung, muscle, bone, and tumor) were collected, weighed, and measured in the gamma counter. The results were expressed as percentage of injected dose per gram organ (% ID/g).

M21 tumor = assay: Static PET/CT imaging in M21 (αvβ3-positive) xenografted Balb/c nude mice; type: in vivo, mouse; settings: αvβ3 integrin-positive (M21) tumor tissue, 30 and 90 min p.i.
Protocol: as §2, §3
(§4) PET/CT imaging of the experimental animals was performed with an Albira PET/SPECT/CT small animal imaging system (Bruker Biospin Corporation, Woodbridge, CT, USA). […] After reconstruction, the acquired data was viewed and analyzed with the appropriate software (PMOD software, PMOD Technologies Ltd., Zurich, Switzerland and VolView software, Kitware, Clifton Park, NY, USA).

U-87 MG tumor = assay: Static PET/CT imaging in U-87 MG tumor-bearing Balb/c nude mice; type: in vivo, mouse; settings: U-87 MG tumor mice, 30 and 90 min p.i.
Protocol: as §2, §3, §4

M21-L tumor = assay: Static PET/CT imaging in M21-L (αvβ3-negative) xenografted Balb/c nude mice; type: in vivo, mouse; settings: αvβ3 integrin-negative (M21-L) tumor tissue, 30 and 90 min p.i.
Protocol: as §2, §3, §4

For `CC(=O)N(O)CCCCCNC(=O)CCC(=O)N(O)CCCCCNC(=O)CCC(=O)N(O)CCCCCNC(=S)Nc1ccc(NC(=S)NCCCC[C@@H]2NC(=O)[C@@H](Cc3ccc(O)cc3)NC(=O)[C@H](CC(=O)O)NC(=O)CNC(=O)[C@H](CCCNC(=N)N)NC2=O)cc1` [[^68Ga]Ga-DFO-c(RGDyK), metal not drawn], which “Blocking of cell uptake by excess cold NODAGA-c(RGDyK)” value (U-87 MG cells) is on record?
Its value is “could be blocked with NODAGA-c(RGDyK) by about half”.

And the logP [1]?
Its logP is -2.01 ± 0.08.

What about the tissue uptake at 0.5 h [2] of the same compound?
Its tissue uptake at 0.5 h is 3.03 ± 0.62 %ID/g.

And the tissue uptake at 1.5 h [2]?
The tissue uptake at 1.5 h was 1.54 ± 0.56 %ID/g.

What about the “Blocking of cell uptake by excess cold NODAGA-c(RGDyK)” value (M21 cells) of the same compound?
The value was “could only be blocked for the αvβ3-positive cells (M21)”.

What about the tissue uptake at 1.5 h ([3]; Activity concentration in intestines) of the same compound?
The tissue uptake at 1.5 h was 1.99 ± 0.01 %ID/g.

What about the tissue uptake at 1.5 h ([3]; Activity concentration in kidneys) of the same compound?
Its tissue uptake at 1.5 h is 5.31 ± 0.12 %ID/g.

What about the tissue uptake at 1.5 h ([3]; Activity concentration in stomach) of the same compound?
The tissue uptake at 1.5 h was 1.78 ± 0.05 %ID/g.

And the PET/CT tumor uptake (M21 tumor)?
Its PET/CT tumor uptake is “specific uptake of the radiotracer”.

And the PET/CT tumor visualization (U-87 MG tumor)?
Its PET/CT tumor visualization is “clearly visualizing the tumor”.

What about the PET/CT tumor uptake (M21-L tumor) of the same compound?
Its PET/CT tumor uptake is “no uptake was observed”.
